Measured values: ChEMBL document CHEMBL1201862, “PubChem BioAssay data set” (2004)
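Protocol summary: plate cells (96-well), add compound at 5 concentrations, incubate 48 h, interpolate endpoints linearly. Abbreviation: GI50, concentration required for 50% inhibition of growth.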 The source made the active and inactive calls. Cut-off read from the data, not from the text of the source: active = GI50 up to about 1.1 µM and inactive = higher.

Key:
Test in all cases: NCI anticancer screen, dose series, 48 h
[1] = system: 786-0
[2] = system: CAKI-1
[3] = system: DU-145
[4] = system: EKVX
[5] = system: HCT-116
[6] = system: K562
[7] = system: M14
[8] = system: MCF7
[9] = system: MDA-MB-231
[10] = system: MOLT-4
[11] = system: OVCAR-4
[12] = system: OVCAR-8
[13] = system: PC-3
[14] = system: SF-268
[15] = system: SF-539
[16] = system: SK-MEL-5
[17] = system: SNB-75
[18] = system: SR
[19] = system: SW-620
[20] = system: U-251

| Structure (SMILES) | GI50 [1] | GI50 [2] | GI50 [3] | GI50 [4] | GI50 [5] | GI50 [6] | GI50 [7] | GI50 [8] | GI50 [9] | GI50 [10] | GI50 [11] | GI50 [12] | GI50 [13] | GI50 [14] | GI50 [15] | GI50 [16] | GI50 [17] | GI50 [18] | GI50 [19] | GI50 [20] |
| --- | --- | --- | --- | --- | --- | --- | --- | --- | --- | --- | --- | --- | --- | --- | --- | --- | --- | --- | --- | --- |
| O=C1Oc2ccccc2C(=O)/C1=C/N1C(=O)/C(=C/c2ccc([N+](=O)[O-])cc2)SC1=S | 30.5 µM (inactive) | 24.5 µM (inactive) | 25.7 µM (inactive) | 54.1 µM (inactive) | 19.3 µM (inactive) | 19.4 µM (inactive) | 22.8 µM (inactive) | 35.6 µM (inactive) | 24.9 µM (inactive) | 29.8 µM (inactive) | 20.8 µM (inactive) | 21.8 µM (inactive) | 18.2 µM (inactive) | 23.2 µM (inactive) | 21.8 µM (inactive) | 19.7 µM (inactive) | 16.6 µM (inactive) | 31.6 µM (inactive) | 21.8 µM (inactive) | 18.9 µM (inactive) |
| Oc1nc(S)nc(SCc2c(Cl)c(Cl)c(Cl)c(Cl)c2Cl)n1 | 42.7 µM (inactive) | 30.6 µM (inactive) | 45.9 µM (inactive) | 40.9 µM (inactive) | 39.8 µM (inactive) | 15.3 µM (inactive) | 60.8 µM (inactive) | 37.2 µM (inactive) | > 100 µM (inactive) | 0.809 µM (active) | 21.9 µM (inactive) | 62.7 µM (inactive) | > 67.9 µM (inactive) | 40 µM (inactive) | 46.2 µM (inactive) | > 84.1 µM (inactive) | > 100 µM (inactive) | 0.184 µM (active) | 32.4 µM (inactive) | > 100 µM (inactive) |
| Cc1c(CN)c(C)c(CN)c(C)c1CN | > 100 µM (inactive) | > 100 µM (inactive) | > 100 µM (inactive) | > 100 µM (inactive) | > 100 µM (inactive) | > 100 µM (inactive) | > 100 µM (inactive) | > 100 µM (inactive) | > 100 µM (inactive) | > 100 µM (inactive) | > 100 µM (inactive) | > 100 µM (inactive) | > 100 µM (inactive) | > 100 µM (inactive) | > 100 µM (inactive) | > 100 µM (inactive) | > 100 µM (inactive) | > 100 µM (inactive) | > 100 µM (inactive) | > 100 µM (inactive) |
